One molecule from patent US9107816B2, “Implantable device for controlled dissolution and diffusion of low solubility drug” (TARIS BIOMEDICAL LLC, priority 2011, dated 2015) can be followed below.

This data set can be described thus: In vitro release of mitomycin C from housing module (100% MMC tablets). The format is physicochemical. The following applies: 100% MMC tablet, one face exposed, 20 mL deionized water at 37° C., replenished daily, 8 days, n=3, FIG. 43. How it is done: The diameter of the tablets was either 2.1 mm or 2.6 mm with the height of 2 mm. The mass of the tablet was approximately 10 mg for 2.1 mm diameter tablet and 16 mg for 2.6 mm diameter tablet.
Housing modules were made from segments of silicone tube and silicone adhesive. […] The surface ‘b’ of tablet 402 was surrounded by silicone tube 406 and the surface ‘c’ was in contact with silicone adhesive 408.
Specifically, the housing module 400 was submerged in 20 mL deionized water at 37° C., with the release medium being entirely replenished daily during the test period. The cumulative release of MMC was measure over the test period. In vitro release data is shown in FIG. 43 (n=3; the error bars indicate S.D. around the mean.) (Some error bars are not shown, i.e., when they are smaller than the symbols.).

SMILES strings stand for the structures.

Regarding `CO[C@@]12[C@H](COC(N)=O)C3=C(C(=O)C(C)=C(N)C3=O)N1C[C@@H]1N[C@@H]12` [MMC, mitomycin C], the “cumulative release of MMC (release kinetics)” value is “near zero order release was achieved until the tablet was all eroded”.
